{"source": "patent US7276490B1", "about": "“Medicinal compositions containing prostacylin synthase gene” (priority 2000, dated 2007)", "key": {"HEK-293 cells [1]": {"tested_on": "HEK-293 cells", "assay": "Double-staining with anti-PGIS antibody and Hoechst 33258 (chromatin condensation)", "assay_type": "cell-based, human", "settings": "100 μM; HEK-293 cells expressing PGIS; data not shown", "procedure": "Cultured monolayer cells of human fetal kidney-derived HEK-293 cell line (ATCC CRL-1573) were harvested and plated in Dulbecco's modified Eagle's medium containing 10% bovine fetal serum (FBS), 100 U/ml penicillin, and […] streptomycin (3×10^5 cells/60-mm dish). 24 hours after incubation, the cells were transfected with 3 μg of any one of PGISwt (described below), PGISC441A (described below), or control vector pCMV7 (generous gift from Texas University; Andersson, S. et al., J. Biol. Chem., 264, 8222-8229 (1989): this can be replaced with pcDNA3 (Invitrogen; catalogue number: #A-150228)) and […] of pvA (plasmid encoding adenovirus-associated RNA1) using LipofectAMINE (Gibco-BRL). 5 hours after transfection, the cells were rinsed twice with phosphate-buffered physiological saline (PBS), and the fresh medium was added thereto. After gene transfer, the cells were cultured for 48 to 60 hours in total. Then, the cells were rinsed with PBS, and fixed with 3.7% formaldehyde for 10 minutes. The cells fixed were washed three times with PBS, and then incubated with the anti-PGIS antibody P4 for 2 hours. After being washed three times with PBS containing 2% FBS, the cells were incubated with anti-rabbit Ig-Texas Red at 37° C. for 1 hour and stained with […] Hoechst 33258 at room temperature for 15 minutes."}, "PPAR": {"tested_on": "PPAR", "assay": "PPREx3-luciferase assay in HEK-293 cells", "assay_type": "cell-based, human", "from_the_text": "The sense oligonucleotide […] CTC (SEQ ID NO: 7) and antisense oligonucleotide […] A (which contains three copies of PPRE; SEQ ID NO: 8) were synthesized and annealed together; the resulting double-stranded DNA was subcloned into PGL3-promoter vector (Promega) at the MluI-XhoI site. PPREx3-luciferase reporter vector and β-galactosidase expression vector were co-transfected into HEK-293 cells using LipofectAMINE. The activity of β-galactosidase was normalized with absorbance at 405 nm."}, "HEK-293 cells [2]": {"tested_on": "HEK-293 cells", "assay": "Apoptosis assay: X-Gal staining of β-galactosidase co-transfected cells, apoptotic morphology", "assay_type": "cell-based, human", "settings": "for induction/enhancement of apoptosis by treatment with the agent: various concentrations (1, 10, 100 μM) in serum-free medium, cells expressing β-galactosidase and PGISwt or PGISC441A; for effect of oligonucleotide on prostacyclin-mediated apoptosis: HEK-293, HVJ-liposome method", "procedure": "Cells were transfected with 1.0 μg of β-galactosidase expression vector using LipofectAMINE. After a fixed time, the cells were stained with X-Gal to evaluate the cells for apoptotic morphology. Apoptosis was monitored with ApoAlert caspase assay kit using Ac-DEVD-AFC substrate (Clontech). The activity was determined by using lysate pretreated with. Ac-DEVD-CHO as a control according to the supplier's instructions. The caspase activity is defined as a ratio between the caspase activity of a sample and that of lysate prepared from HEK-293 cells mock-transfected with a control plasmid.\nTo strictly ascertain the relationship between the expression of PGIS and apoptosis, HEK-293 cells were co-transfected with two types of expression constructs for human PGISwt and β-galactosidase. Because normal HEK-293 cells have flat morphology, it is easy to assess the cells for apoptotic changes characterized by membrane vesicle formation and cell body shrinkage. After incubation for a predetermined time following transfection, cells were stained with X-gal for β-galactosidase activity to identify cells containing the transgenes and then assessed for the apoptotic morphology. […] In HEK-293 cells, apoptosis was induced only by the expression of PGISwt without the presence of co-expression of COX-2 (FIGS. 4a and 5). The co-expression of COX-2 with PGISwt increased the number of apoptotic cells (16%). […] The level of 6-keto-PGF1α released into culture medium was correlated with the frequency of apoptosis (FIG. 6). […] Neither co-expression of PGISC441A and COX-2 nor further addition of arachidonic acid gave influence on the production 6-keto-PGF1α and morphological changes (FIGS. 5 and 6). These findings clearly indicate that prostacyclin produced by active PGIS participates in the process of apoptosis."}, "recombinant PPAR": {"tested_on": "recombinant PPAR", "settings": "added to medium; cited from earlier work"}, "cAMP": {"tested_on": "cAMP", "assay": "Intracellular level of cAMP accumulated in transfected cells", "assay_type": "cell-based, human", "settings": "Iloprost at various concentrations, serum-free medium", "procedure": "FIG. 8 illustrates a diagram showing the intracellular level of cAMP accumulated in cells in serum-free medium containing Iloprost at the concentrations indicated (0, 1, 10, or 100 μM). The cells were transfected with expression plasmids for PGISwt, PGISC441A, or a mock control expression plasmid and β-galactosidase expression plasmid. After 17 hours, the medium was changed with serum-free medium containing Iloprost at various concentrations (0, 1, 10, or 100 μm). All results were obtained from three sets of experiments (n=3) and are presented as mean±S.D."}, "HEK-293 cells [3]": {"tested_on": "HEK-293 cells", "assay": "Distribution of 3H-Iloprost in membrane, cytosol and nuclear fractions", "assay_type": "in vitro ADME, human", "settings": "100 μM 3H-Iloprost, 24 hours", "procedure": "FIG. 14 is a diagram showing the influence of the expression of PGIS on PPAR activation. The permeability of Iloprost was evaluated by using ^3H-Iloprost. HEK-293 cells were cultured in DMEM containing 100 μM ^3H-Iloprost for 24 hours. Cell membrane, cytosol, and nuclear fractions were prepared from the cells, and then the distribution of ^3H-Iloprost was determined using the fractions. The results were obtained from three sets of experiments (n=3) and are presented as mean±S.D."}, "PPAR-δ": {"tested_on": "PPAR-δ", "assay": "Immunoblot of PPAR-δ after oligonucleotide transfection (HVJ-liposome method)", "assay_type": "cell-based, human", "settings": "after 48 hours", "from_the_text": "A lysate prepared from cells transfected with the PPAR-δ antisense oligonucleotide (AS) was immuno-blotted using an anti-PPAR-δ monoclonal antibody; a sense oligonucleotide (S) was used as a control.\ndS, which corresponds to human PPAR-δ cDNA sense sequence: 5′-CTCGGTGACTTATCCTGTG-3′ (SEQ ID NO: 3); dAS, which corresponds to human PPAR-δ cDNA antisense sequence: 5′-TCCTCTTTCTCCTCCTCTT-3′ (SEQ ID NO: 4); aS, which corresponds to human PPAR-α cDNA sense sequence: 5′-CTCGGTGACTTATCCTGTG-3′ (SEQ ID NO: 5); and aAS, which corresponds to human PPAR-α cDNA antisense sequence: 5′-CACAGGATAAGTCACCGAG-3′ (SEQ ID NO: 6). These oligonucleotides were transfected into cells by HVJ-liposome method. Each oligonucleotide (22 μg) was combined with a nuclear protein and high mobility group (HMG)-1. HVJ-liposome was prepared by combining dry lipid (phosphatidyl serine/phosphatidyl choline/cholesterol (1:4.8:2 w/w/w)) with ultraviolet light-inactivated HVJ virus (viruses). After incubation and centrifugation with a sucrose-density gradient, the top layer was collected for transfection. 48 hours after transfection, cells in which the expression of endogenous PPAR-δ had been suppressed were used in PPREx3-luciferase assay and apoptosis assay."}, "HEK-293 cells [4]": {"tested_on": "HEK-293 cells", "assay": "Apoptosis assay: X-Gal staining of β-galactosidase co-transfected cells, apoptotic morphology", "assay_type": "cell-based, human", "settings": "HEK-293, HVJ-liposome method"}}, "data": [{"compound": "CCCCC[C@H](O)/C=C/[C@@H]1[C@@H](C/C=C\\CCCC(=O)O)[C@H]2CO[C@@H]1C2", "note": "[U46619]", "values": [{"measurement": "Hoechst 33258-positive cells", "setting": "HEK-293 cells [1]", "value": 32, "unit": "%"}]}, {"compound": "CC#CCC(C)[C@H](O)/C=C/[C@@H]1[C@H]2C/C(=C/CCCC(=O)O)C[C@H]2C[C@H]1O", "note": "(some centres unmarked) [Iloprost]", "values": [{"measurement": "activity of PPRE-luciferase on treatment", "setting": "PPAR; 1 to 100 μM added to medium, endogenous PPAR", "value": "could not increase"}, {"measurement": "induction/enhancement of apoptosis by treatment with the agent", "setting": "HEK-293 cells [2]", "value": "apoptosis was not induced"}, {"measurement": "activation of recombinant PPAR overexpressed in CV-1 cells", "setting": "recombinant PPAR", "value": "results in activation"}, {"measurement": "intracellular cAMP", "setting": "cAMP", "value": "accumulated"}, {"measurement": "Iloprost taken up by HEK-293 cells", "setting": "HEK-293 cells [3]", "value": "very little"}, {"measurement": "share of the Iloprost incorporated that is localized on cell membrane", "setting": "HEK-293 cells [3]", "value": "> 99", "unit": "%"}]}, {"compound": "CCCC(=O)Nc1ncnc2c1ncn2[C@@H]1O[C@@H]2COP(=O)(O)O[C@H]2[C@H]1OC(=O)CCC", "note": "[dbcAMP, dibutyryl-cAMP]", "values": [{"measurement": "induction/enhancement of apoptosis by treatment with the agent", "setting": "HEK-293 cells [2]", "value": "apoptosis was not enhanced"}]}, {"compound": "CCCCC/C=C\\C/C=C\\C/C=C\\C/C=C\\CCCC(=O)O", "note": "[arachidonic acid]", "values": [{"measurement": "apoptosis on addition to the medium", "setting": "HEK-293 cells [2]; HEK-293 cells expressing both PGISwt and COX-2", "value": "induction of apoptosis in almost all the cells"}]}, {"compound": "CC(=O)Oc1ccccc1C(=O)O", "note": "[aspirin]", "values": [{"measurement": "Hoechst 33258-positive cells", "setting": "HEK-293 cells [1]", "value": 48, "unit": "%"}]}, {"compound": "5′-TCCTCTTTCTCCTCCTCTT-3′ (listed as DNA, chemistry not given here) [PPAR-δ antisense oligonucleotide]", "values": [{"measurement": "activity of luciferase co-expressed with PGISwt in oligonucleotide-treated cells", "setting": "PPAR; HEK-293", "value": "significantly decreased"}, {"measurement": "effect of oligonucleotide on prostacyclin-mediated apoptosis", "setting": "HEK-293 cells [2]", "value": "significantly blocked"}, {"measurement": "production of PPAR-δ protein", "setting": "PPAR-δ", "value": "suppressed"}, {"measurement": "changes in the oligonucleotide-treated cells (viability, morphology)", "setting": "HEK-293 cells [4]", "value": "normal morphology"}, {"measurement": "number of cells after oligonucleotide treatment", "setting": "HEK-293 cells [4]", "value": "increased"}]}, {"compound": "CC1CNCCN1S(=O)(=O)c1cccc2cnccc12", "note": "(centres unmarked) [H-7]", "values": [{"measurement": "effect on prostacyclin-mediated apoptosis", "setting": "HEK-293 cells [2]; H-7 1, 10, 100 μM in serum-free medium, FIG. 10", "value": "did not block but enhanced"}]}, {"compound": "5′-CTCGGTGACTTATCCTGTG-3′ (listed as DNA, chemistry not given here) [PPAR-α sense oligonucleotide]", "values": [{"measurement": "changes in the oligonucleotide-treated cells (viability, morphology)", "setting": "HEK-293 cells [4]", "value": "no marked changes"}]}, {"compound": "5′-CACAGGATAAGTCACCGAG-3′ (listed as DNA, chemistry not given here) [antisense oligonucleotide PPAR-α]", "values": [{"measurement": "effect of oligonucleotide on prostacyclin-mediated apoptosis", "setting": "HEK-293 cells [2]", "value": "apoptosis was not inhibited"}, {"measurement": "changes in the oligonucleotide-treated cells (viability, morphology)", "setting": "HEK-293 cells [4]", "value": "cell viability declined"}]}, {"compound": "CCCCC[C@H](O)/C=C/[C@@H]1[C@H]2C/C(=C/CCCC(=O)O)O[C@H]2C[C@H]1O", "note": "[prostacyclin]", "values": [{"measurement": "activation of recombinant PPAR overexpressed in CV-1 cells", "setting": "recombinant PPAR", "value": "could not activate"}]}]}
